# Results reported in patent publication US9765105B2, “Macrolide compound” (Pulike Biological Engineering, Inc., priority 2013, dated 2017).
# Assays:
# Experiment in all cases: in vitro susceptibility, MIC by mini broth dilution
# Type in all cases: cell-based
# [1] = tested on: Staphylococcus aureus CVCC26003; conditions: strain CVCC26003
# In short: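 MICs were determined by mini broth dilution under NCCLS standards in CAMHB, using revived S. aureus CVCC26003 subcultured 20 h at 35° C. Compounds were two-fold serially diluted in DMSO across 11 wells, with duplicate rows. Bacterial suspension was diluted 1:200 in medium before inoculation.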
# Haemophilus parasuis = tested on: Haemophilus parasuis
# In short: (§1)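 Bacteria were revived from −20° C stocks and streaked twice on solid medium, each time grown 20 h at 35° C. Compounds were double-diluted in DMSO across 11 wells and tested in two parallel rows. The bacterial suspension was diluted 1:200 with liquid medium before MIC determination by mini broth dilution.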
# [2] = tested on: Actinobacillus pleuropneumoniae CVCC262; conditions: strain CVCC262
# In short: as §1
# [3] = tested on: Pasteurella multocida CVCC399; conditions: strain CVCC399
# In short: as §1
# [4] = tested on: Streptococcus equines CVCC556; conditions: strain CVCC556
# In short: as §1
Compound,"MIC values, Staphylococcus aureus CVCC26003 [1]","MIC values, Haemophilus parasuis (Haemophilus parasuis)","MIC values, Actinobacillus pleuropneumoniae CVCC262 [2]","MIC values, Pasteurella multocida CVCC399 [3]","MIC values, Streptococcus equines CVCC556 [4]"
"CC[C@H]1OC(=O)[C@H](C)[C@@H](O[C@H]2C[C@@](C)(OC)[C@](O)(C=NNc3ccccc3)[C@H](C)O2)[C@H](C)[C@@H](O[C@@H]2O[C@H](C)C[C@H](N(C)C)[C@H]2O)[C@](C)(O)C[C@@H](C)NC[C@H](C)[C@@H](O)[C@]1(C)O [syzx-73, (2R,3S,4R,5S,8R,10R,11R,12S,13S,14R)-13-[(2,6-dideoxy-3-C-methyl-3-O-methyl-4-C-[(phenylhydrazono)-methyl]-α-L-ribopyranosyl)oxy]-2-ethyl-3,4,10-trihydroxy-3,5,8,10,12,14-hexamethyl-11-[[3,4,6-trideoxy-3-(dimethylamino)-β-D-xylo-hexopyranosy]oxy]-1-oxa-7-azacyclopentadecan-15-one]",1 ug/mi,1 ug/mi,1 ug/mi,2 ug/mi,0.5 ug/mi
CCCN1C[C@H](C)[C@@H](O)[C@](C)(O)[C@@H](CC)OC(=O)[C@H](C)[C@@H](O[C@H]2C[C@@](C)(OC)[C@](O)(CNC3CC3)[C@H](C)O2)[C@H](C)[C@@H](O[C@@H]2O[C@H](C)C[C@H](N(C)C)[C@H]2O)[C@](C)(O)C[C@H]1C [syzx-217],0.25 ug/mi,0.25 ug/mi,0.25 ug/mi,0.5 ug/mi,0.25 ug/mi
CCCN1C[C@H](C)[C@@H](O)[C@](C)(O)[C@@H](CC)OC(=O)[C@H](C)[C@@H](O[C@H]2C[C@@](C)(OC)[C@](O)(CNc3ccc(Cl)nn3)[C@H](C)O2)[C@H](C)[C@@H](O[C@@H]2O[C@H](C)C[C@H](N(C)C)[C@H]2O)[C@](C)(O)C[C@H]1C [syzx-132],1 ug/mi,0.5 ug/mi,0.5 ug/mi,2 ug/mi,0.25 ug/mi
CCCN1C[C@H](C)[C@@H](O)[C@](C)(O)[C@@H](CC)OC(=O)[C@H](C)[C@@H](O[C@H]2C[C@@](C)(OC)[C@](O)(CNCc3ccc(F)cc3)[C@H](C)O2)[C@H](C)[C@@H](O[C@@H]2O[C@H](C)C[C@H](N(C)C)[C@H]2O)[C@](C)(O)C[C@H]1C [syzx-108],0.25 ug/mi,0.25 ug/mi,0.25 ug/mi,1 ug/mi,0.25 ug/mi
CCCN1C[C@H](C)[C@@H](O)[C@](C)(O)[C@@H](CC)OC(=O)[C@H](C)[C@@H](O[C@H]2C[C@@](C)(OC)[C@](O)(CNc3cccc(Cl)c3)[C@H](C)O2)[C@H](C)[C@@H](O[C@@H]2O[C@H](C)C[C@H](N(C)C)[C@H]2O)[C@](C)(O)C[C@H]1C [syzx-113],0.25 ug/mi,0.25 ug/mi,0.25 ug/mi,1 ug/mi,0.25 ug/mi
"CC[C@H]1OC(=O)[C@H](C)[C@@H](O[C@H]2C[C@@](C)(OC)[C@](O)(CNc3cc(OC)cc(OC)c3)[C@H](C)O2)[C@H](C)[C@@H](O[C@@H]2O[C@H](C)C[C@H](N(C)C)[C@H]2O)[C@](C)(O)C[C@@H](C)NC[C@H](C)[C@@H](O)[C@]1(C)O [syzx-76, (2R,3S,4R,5S,8R,10R,11R,12S,13S,14R)-13-[(2,6-dideoxy-3-C-methyl-3-O-methyl-4-C-[(3,5-dimethoxyphenyl-amino)-methyl]-α-L-ribopyranosyl)oxy]-2-ethyl-3,4,10-trihydroxy-3,5,8,10,12,14-hexamethyl-11-[[3,4,6-trideoxy-3-(dimethylamino)-β-D-xylo-hexopyranosy]oxy]-1-oxa-7-azacyclopentadecan-15-one]",2 ug/mi,1 ug/mi,64 ug/mi,4 ug/mi,2 ug/mi
CCCN1C[C@H](C)[C@@H](O)[C@](C)(O)[C@@H](CC)OC(=O)[C@H](C)[C@@H](O[C@H]2C[C@@](C)(OC)[C@](O)(CNc3ccc([N+](=O)[O-])cc3[N+](=O)[O-])[C@H](C)O2)[C@H](C)[C@@H](O[C@@H]2O[C@H](C)C[C@H](N(C)C)[C@H]2O)[C@](C)(O)C[C@H]1C [syzx-228],2 ug/mi,1 ug/mi,1 ug/mi,2 ug/mi,0.25 ug/mi
CCCN1C[C@H](C)[C@@H](O)[C@](C)(O)[C@@H](CC)OC(=O)[C@H](C)[C@@H](O[C@H]2C[C@@](C)(OC)[C@](O)(CNC3CCCC3)[C@H](C)O2)[C@H](C)[C@@H](O[C@@H]2O[C@H](C)C[C@H](N(C)C)[C@H]2O)[C@](C)(O)C[C@H]1C [syzx-130],0.25 ug/mi,8 ug/mi,0.5 ug/mi,0.5 ug/mi,0.25 ug/mi
CCCN1C[C@H](C)[C@@H](O)[C@](C)(O)[C@@H](CC)OC(=O)[C@H](C)[C@@H](O[C@H]2C[C@@](C)(OC)[C@](O)(CNc3cc(Cl)ccc3C)[C@H](C)O2)[C@H](C)[C@@H](O[C@@H]2O[C@H](C)C[C@H](N(C)C)[C@H]2O)[C@](C)(O)C[C@H]1C [syzx-234],2 ug/mi,4 ug/mi,4 ug/mi,8 ug/mi,0.25 ug/mi
"(2R,3S,4R,5S,8R,10R,11R,12S,13S,14R)-13-[(2,6-dideoxy-3-C-methyl-3-O-methyl-4-C-[(thienylformyloxymethyl-2-amino)-methyl]-α-L-ribopyranosyl)oxy]-2-ethyl-3,4,10-trihydroxy-3,5,8,10,12,14-hexamethyl-11-[[3,4,6-trideoxy-3-(dimethylamino)-β-D-xylo-hexopyranosy]oxy]-1-oxa-7-azacyclopentadecan-15-one [syzx-77]",0.25 ug/mi,0.25 ug/mi,16 ug/mi,0.5 ug/mi,0.5 ug/mi
"CC[C@H]1OC(=O)[C@H](C)[C@@H](O[C@H]2C[C@@](C)(OC)[C@](O)(CNc3cc(Cl)ccc3C)[C@H](C)O2)[C@H](C)[C@@H](O[C@@H]2O[C@H](C)C[C@H](N(C)C)[C@H]2O)[C@](C)(O)C[C@@H](C)NC[C@H](C)[C@@H](O)[C@]1(C)O [syzx-94, (2R,3S,4R,5S,8R,10R,11R,12S,13S,14R)-13-[(2,6-dideoxy-3-C-methyl-3-O-methyl-4-C-[(5-chloro-o-methylphenyl-amino)-methyl]-α-L-ribopyranosyl)oxy]-2-ethyl-3,4,10-trihydroxy-3,5,8,10,12,14-hexamethyl-11-[[3,4,6-trideoxy-3-(dimethylamino)-β-D-xylo-hexopyranosy]oxy]-1-oxa-7-azacyclopentadecan-15-one]",1 ug/mi,0.5 ug/mi,0.5 ug/mi,2 ug/mi,0.25 ug/mi
